Patent US7094797B2, “Organ fibrosis inhibitor” (Ajinomoto Co., Inc., priority 2001, dated 2006)

Legend:
Hepatic stellate cells = assay: PDGF-stimulated DNA synthesis (BrdU uptake, ELISA) of Hepatic stellate cells; assay type: cell-based, rat; details: PDGF 25 ng/ml
Description: Hepatic stellate cells were isolated from a male Wistar rat liver and were cultured by the liver perfusion method with pronase E and collagenase. Hepatic stellate cells on day 8 to day 14 were cultured overnight in a culture medium containing 10 vol. % fetal calf serum (FCS). The culture medium was replaced with a culture medium containing 0.1 vol. % FCS, and it was cultured for 48 hours. Subsequently, L-histidine as the test substance was added in an amount to give a concentration of 1 to 30 mM. Then, further, platelet-derived growth factor (PDGF) was added to give a final concentration of 25 ng/ml, and the Hepatic stellate cells were cultured for 24 hours. Six hours before the completion of the culturing, bromodeoxyuridine (BrdU) was added to the culture system. After the completion of the culturing, the BrdU uptake into the cells was assayed by ELISA (enzyme-linked immunosorbent assay). As a control, only PDGF (at the final concentration of 25 ng/ml) was added to the culture medium. When the BrdU uptake in the control was defined as 100%, the value of each of the groups was calculated and the results are shown in FIG. 2.
In the same manner as in Example 2, the effects of L-histidine and D-histidine (individually at 30 mM) on the DNA synthesis of Hepatic stellate cells were compared with each other. When the BrdU uptake in the control was defined as 100%, the value of each of the groups was calculated and is shown in FIG. 3.
Hepatic stellate cells were isolated from male Wistar rat liver, and were cultured by the liver perfusion method with pronase E and collagenase. Hepatic stellate cells on day 8 to day 14 were cultured overnight in a culture medium containing 10 vol. % fetal calf serum (FCS). The culture medium was replaced with a 0.1 vol. % FCS culture medium, and it was cultured for 48 hours. Subsequently, L-cysteine, L-histidine or a composition of L-cysteine and L-histidine as a test substance was added thereto. […] When the BrdU uptake in the control was defined as 100%, the value of each of the groups was calculated and the results are shown in FIG. 4.

[1] = system: liver damage due to D-galactosamine administration; details: rat given L-histidine; cited from earlier work
[2] = system: liver fibrosis induced by dimethylnitroseamine (DMN) in SD rat; assay: DMN-induced liver fibrosis in rat, amount of hydroxyproline (Hyp) in the liver; assay type: in vivo; details: male SD rat, DMN 10 mg/kg i.p. three times weekly for 3 weeks; His 0.2, 0.5, 1.0, 2.0 wt. % in feed, oral; day 21; FIG. 1
Description: Dimethylnitroseamine (DMN) was administered intraperitoneally at 10 mg/kg three times weekly to a male 9-week-old SD rat for 3 weeks to induce liver fibrosis. A commercially available feed or experimental diets prepared by adding L-histidine (His) as a test substance at concentrations of 0.2, 0.5, 1.0, and 2.0 wt. % to a commercially available feed were fed beginning on the day of start of DMN administration and thereafter. On day 21 from the start of the DMN administration, the liver was collected to assay the amount of hydroxyproline (Hyp) in the liver as a liver fibrosis marker, using an amino acid analyzer.

[3] = system: Human kidney mesangial cells; assay: DNA synthesis (BrdU uptake, ELISA) of human kidney mesangial cells stimulated with FCS; assay type: cell-based; details: 10 or 30 mM, FCS 5 vol. %, 24 hours; FIG. 6
Description: Human kidney mesangial cells were cultured overnight in a culture medium containing 10 vol. % fetal calf serum (FCS). Subsequently, the culture medium was replaced with a 0.1 vol. % FCS culture medium, and it was cultured for 24 hours. Subsequently, L-histidine (His) as a test substance was added in an amount to give a concentration of 10 or 30 mM. Then, further, FCS was added to give a final concentration of 5 vol. %, and the mesangial cells were cultured for 24 hours. Six hours before the completion of the culturing, bromodeoxyuridine (BrdU) was added to the culture system. After the completion of the culturing, the BrdU uptake into the cells was assayed by ELISA (enzyme-linked immunosorbent assay). As a control, only 5 vol. % FCS was added to the culture medium. When the BrdU uptake in the control was defined as 100%, the value of each of the groups was calculated and the results are shown in FIG. 6.

[4] = system: Human normal lung fibroblast cells (HLF-1 cell); assay: DNA synthesis (BrdU uptake, ELISA) of human normal lung fibroblast cells stimulated with PDGF or FCS; assay type: cell-based; details: HLF-1, 10 or 30 mM, 24 hours
Description: Human normal lung fibroblast cells (HLF-1 cell) were cultured overnight in a culture medium containing 10 vol. % fetal calf serum (FCS). Subsequently, the culture medium was replaced with a 0.1 vol. % FCS culture medium, and it was cultured for 24 hours. Subsequently, L-histidine (His) as the test substance was added so that the concentration was 10 or 30 mM. Then, further, platelet-derived growth factor (PDGF) was added to give a final concentration of 25 ng/ml or FCS was added to give a final concentration of 5 vol. %, and the HLF-1 cells were cultured for 24 hours. Six hours before the completion of the culturing, bromodeoxyuridine (BrdU) was added to the culture system. After the completion of the culturing, the BrdU uptake into the cells was assayed by ELISA (enzyme-linked immunosorbent assay). As a control, only PDGF (at the final concentration of 25 ng/ml) or FCS (at the final concentration of 5 vol. %) was added to the culture medium.

[5] = 30 mM, levels of suppression of L- and D-form almost equal, FIG. 3

Row | Structure (SMILES) | DNA synthesis of Hepatic stellate cells activated with PDGF (BrdU uptake) (Hepatic stellate cells; [5]) | liver damage due to D-galactosamine administration [1] | amount of Hyp in the liver (liver fibrosis marker) [2] | DNA synthesis of human kidney mesangial cell with FCS (BrdU uptake) [3] | DNA synthesis of human normal lung fibroblast cell with FCS (BrdU uptake) ([4]; FCS 5 vol. %, FIG. 5b) | DNA synthesis of human normal lung fibroblast cell with PDGF (BrdU uptake) ([4]; PDGF 25 ng/ml, FIG. 5a) | DNA synthesis of Hepatic stellate cells activated with PDGF (BrdU uptake) (Hepatic stellate cells; 1 to 30 mM, 24 hours, dose-dependent, FIG. 2)
1 | N[C@H](Cc1c[nH]cn1)C(=O)O [D-histidine] | strongly suppressed |  |  |  |  |  | 
2 | N[C@@H](Cc1c[nH]cn1)C(=O)O [L-histidine] | strongly suppressed | can be reduced | significantly decreased | strongly suppressed | strongly suppressed | strongly suppressed | strongly suppressed
